Test system: M. tuberculosis
Format: cell-based, Mycobacterium tuberculosis

Structure (SMILES)	time of exposure within which changes in α-antigen mRNA were detected [h]	decline in detectable α-antigen mRNA, compared with INH-treated cultures
NNC(=O)c1ccncc1 [INH, Isoniazid]	≤ 24	–
CO[C@H]1/C=C/O[C@@]2(C)Oc3c(C)c(O)c4c(O)c(c(/C=N/N5CCN(C)CC5)c(O)c4c3C2=O)NC(=O)/C(C)=C\C=C\[C@H](C)[C@H](O)[C@@H](C)[C@@H](O)[C@@H](C)[C@H](OC(C)=O)[C@@H]1C [RIF, rifampin]	≤ 24	more rapid
